Measurements as given in patent US10633407B2, “14-membered ketolides and methods of their preparation and use” (President and Fellows of Harvard College, priority 2014, dated 2020).
Values after ≈ are worked out from the molar mass of the structure shown. Read-outs that look alike come from different tables or passages of the source.

Legend:
Assay in all cases: CLSI broth dilution MIC determination
Assay type in all cases: cell-based
K. pneumoniae ATCC 10031 = test system: K. pneumoniae ATCC 10031
E. faecalis ATCC 29212 = conditions: E. faecalis ATCC 29212; Gram-positive
[1] = test system: H. influenzae Erythro >4, Azithro 1; conditions: H. influenzae Erythro >4, Azithro 1; Gram-negative
Excerpt: MIC data was collected for the novel macrolides that this platform has produced against over 21 unique strains of B. subtilis, E. coli, S. aureus, S. pneumoniae, and H. influenzae, including several multidrug-resistant strains, with a special focus on macrolide resistant mechanisms (vide supra). […] CLSI standard procedures for broth dilution MIC determination were used. […] These genotypes can be constitutive or inducible.

[2] = test system: A. baumannii chromosomal class C; conditions: Gram-negative
[3] = test system: P. aeruginosa HPA101-1477; conditions: Gram-negative
[4] = test system: A. baumannii imipenem-resistant; conditions: Gram-negative
K. pneumoniae SHV-12 = conditions: Gram-negative
P. aeruginosa ATCC 27853 = test system: P. aeruginosa ATCC 27853
A. baumannii IMP-4 = conditions: Gram-negative
K. pneumoniae KPC-2 = conditions: Gram-negative
[5] = test system: E. faecalis Vancomycin-resistant; conditions: E. faecalis Vancomycin-resistant; Gram-positive
[6] = test system: S. pyogenes Macrolide-resistant; conditions: S. pyogenes Macrolide-resistant; Gram-positive
A. baumannii ATCC 19606 = test system: A. baumannii ATCC 19606
S. aureus USA600, GISA = conditions: S. aureus USA600, GISA; Gram-positive
Summary of the method: (§1)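 Broth dilution MICs determined by CLSI standard procedures across a strain panel that includes multidrug- and macrolide-resistant strains. Resistance genotypes may be constitutive or inducible.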

S. aureus MRSA: USA100 = conditions: S. aureus MRSA: USA100; Gram-positive
Summary of the method: as §1

E. coli TEM-1 = conditions: E. coli TEM-1; Gram-negative
Summary of the method: as §1

S. aureus erm A genotype = conditions: S. aureus erm A genotype; Gram-positive
Summary of the method: as §1

E. coli CTX-M-14 = conditions: Gram-negative
Summary of the method: as §1

E. coli NDM-1 = conditions: Gram-negative
Summary of the method: as §1

[7] = test system: S. pneumoniae mef A genotype (second strain so labelled); conditions: Gram-positive
Summary of the method: as §1

S. aureus MRSA: USA300 = test system: S. aureus MRSA: USA300
Summary of the method: as §1

K. pneumoniae TEM-10 = conditions: Gram-negative
S. pneumoniae ATCC 49619 = conditions: S. pneumoniae ATCC 49619; Gram-positive
Summary of the method: as §1

[8] = test system: S. pneumoniae erm B + mef A genotype; conditions: S. pneumoniae erm B + mef A genotype; Gram-positive
Summary of the method: as §1

H. influenzae ATCC49247 = conditions: Gram-negative
Summary of the method: as §1

E. coli ATCC 25922 = test system: E. coli ATCC 25922
Summary of the method: as §1

S. aureus ATCC 29213 = test system: S. aureus ATCC 29213
Summary of the method: as §1

S. pyogenes ATCC 19615 = conditions: S. pyogenes ATCC 19615; Gram-positive
[9] = test system: A. baumannii MP-576 Clinical-MDR; conditions: Acinetobacter baumannii, read-out: MIC
[10] = test system: A. baumannii MP-577 Clinical-AZT low; conditions: Acinetobacter baumannii, read-out: MIC
[11] = test system: K. pneumoniae MP-548 clinical; conditions: Klebsiella pneumoniae, MP548CLINICAL, read-out: MIC
[12] = test system: P. aeruginosa MP-8 PAO1:mex (mex-oprM-deletion); conditions: Pseudomonas aeruginosa, PAO1
[13] = test system: E. coli MP-9 ATCC25922:tolC; conditions: Escherichia coli, ATCC25922
Summary of the method: as §1

E. coli MP-541 clinical = conditions: Escherichia coli, MP541CLINICAL, read-out: MIC
Summary of the method: as §1

[14] = test system: S. aureus MP-17 ATCCBAA-977 (BAA 977 iErm); conditions: Staphylococcus aureus; S. aureus MP-17, ATCCBAA-977, iErm; read-out: MIC
Summary of the method: as §1

[15] = test system: S. aureus (MRSA) MP-513 ST-228 cErm (Clinical-cErm); conditions: Staphylococcus aureus, read-out: MIC
Summary of the method: as §1

[16] = test system: E. coli MP-532 clinical-cErmB; conditions: Escherichia coli
Summary of the method: as §1

P. aeruginosa MP-7 PAO1 = conditions: Pseudomonas aeruginosa, read-out: MIC
[17] = test system: K. pneumoniae MP-546 Clinical-MDR; conditions: Klebsiella pneumoniae, read-out: MIC
[18] = K. pneumoniae ATCC 10031, Gram-negative
[19] = P. aeruginosa ATCC 27853, Gram-negative
[20] = A. baumannii ATCC 19606, Gram-negative
[21] = S. aureus MRSA: USA300, Gram-positive
[22] = E. coli ATCC 25922, Gram-negative
[23] = S. aureus ATCC 29213, Gram-positive

| SMILES | MIC (K. pneumoniae ATCC 10031; [18]) [mg/L] | MIC (E. faecalis ATCC 29212) [mg/L] | MIC [1] [mg/L] | MIC [2] [mg/L] | MIC [3] [mg/L] | MIC [4] [mg/L] | MIC (K. pneumoniae SHV-12) [mg/L] | MIC (P. aeruginosa ATCC 27853; [19]) [mg/L] | MIC (A. baumannii IMP-4) [mg/L] | MIC (K. pneumoniae KPC-2) [mg/L] | MIC [5] [mg/L] | MIC [6] [mg/L] | MIC (A. baumannii ATCC 19606; [20]) [mg/L] | MIC (S. aureus USA600, GISA) [mg/L] | MIC (S. aureus MRSA: USA100) [mg/L] | MIC (E. coli TEM-1) [mg/L] | MIC (S. aureus erm A genotype) [mg/L] | MIC (E. coli CTX-M-14) [mg/L] | MIC (E. coli NDM-1) [mg/L] | MIC [7] [mg/L] | also measured |
| --- | --- | --- | --- | --- | --- | --- | --- | --- | --- | --- | --- | --- | --- | --- | --- | --- | --- | --- | --- | --- | --- |
| CC[C@H]1OC(=O)[C@H](C)C(=O)[C@H](C)[C@@H](O[C@@H]2OC(C)CC(N(C)C)C2O)[C@](C)(OC)C[C@@H](C)C(=O)[C@H](C)[C@H]2N(CC3CC3Cn3cc(-c4cccc(N)c4)nn3)C(=O)O[C@]12C (single isomer, unassigned) [FSM-100428] | 16 (≈ 19.1 µM) | < 0.0312 | 2 (≈ 2.38 µM) | 16 (≈ 19.1 µM) | > 32 | 16 (≈ 19.1 µM) | > 32 | > 32 | > 32 | > 32 | > 32 | < 0.0312 | 16 (≈ 19.1 µM) | > 32 | > 32 | 32 (≈ 38.1 µM) | > 32 | > 32 | > 32 | < 0.0312 | MIC (S. aureus MRSA: USA300; [21]): 4 mg/L (≈ 4.77 µM); MIC (K. pneumoniae TEM-10): 32 mg/L (≈ 38.1 µM); MIC (S. pneumoniae ATCC 49619): < 0.0312 mg/L; MIC [8]: 0.0625 mg/L; MIC (H. influenzae ATCC49247): 4 mg/L (≈ 4.77 µM); MIC (E. coli ATCC 25922; [22]): 32 mg/L (≈ 38.1 µM); MIC (S. aureus ATCC 29213; [23]): < 0.0312 mg/L; MIC (S. pyogenes ATCC 19615): < 0.0312 mg/L |
| CC[C@H]1OC(=O)[C@H](C)C(=O)[C@H](C)[C@@H](O[C@@H]2OC(C)CC(N(C)C)C2O)[C@](C)(OC)C[C@@H](C)C(=O)[C@H](C)[C@H]2N(CC3CC3Cn3cc(-c4cccc(N)c4)nn3)C(=O)O[C@]12C (single isomer, unassigned) [FSM-100434] | 32 (≈ 38.1 µM) | < 0.0312 | > 32 | 16 (≈ 19.1 µM) | > 32 | 16 (≈ 19.1 µM) | > 32 | > 32 | > 32 | > 32 | > 32 | < 0.0312 | 16 (≈ 19.1 µM) | > 32 | > 32 | > 32 | > 32 | > 32 | > 32 | 0.125 (≈ 0.149 µM) | MIC (S. aureus MRSA: USA300; [21]): > 32 mg/L; MIC (K. pneumoniae TEM-10): > 32 mg/L; MIC (S. pneumoniae ATCC 49619): < 0.0312 mg/L; MIC [8]: 1 mg/L; MIC (H. influenzae ATCC49247): > 32 mg/L; MIC (E. coli ATCC 25922; [22]): > 32 mg/L; MIC (S. aureus ATCC 29213; [23]): 0.25 mg/L (≈ 0.298 µM); MIC (S. pyogenes ATCC 19615): < 0.0312 mg/L |
| CC[C@H]1OC(=O)[C@H](C)C(=O)[C@H](C)[C@@H](O[C@@H]2OC(C)CC(N(C)C)C2O)[C@](C)(OC)C[C@@H](C)C(=O)[C@H](C)[C@H]2N(C/C=C/Cn3cc(-c4nccs4)nn3)C(=O)O[C@]12C (some centres unmarked) [FSM-11559] | 4 (≈ 4.9 µM) | ≤ 0.0312 | 4 (≈ 4.9 µM) | 16 (≈ 19.6 µM) | > 32 | 32 (≈ 39.2 µM) | > 32 | > 32 | > 32 | > 32 | > 32 | 0.125 (≈ 0.153 µM) | 16 (≈ 19.6 µM) | > 32 | > 32 | 32 (≈ 39.2 µM) | > 32 | > 32 | > 32 | 0.125 (≈ 0.153 µM) | MIC (S. aureus MRSA: USA300; [21]): 4 mg/L (≈ 4.9 µM); MIC (K. pneumoniae TEM-10): > 32 mg/L; MIC (S. pneumoniae ATCC 49619): ≤ 0.0312 mg/L; MIC [8]: 1 mg/L; MIC (H. influenzae ATCC49247): 4 mg/L (≈ 4.9 µM); MIC (E. coli ATCC 25922; [22]): > 32 mg/L; MIC (S. aureus ATCC 29213; [23]): 0.125 mg/L (≈ 0.153 µM); MIC (S. pyogenes ATCC 19615): ≤ 0.0312 mg/L |
| CC[C@H]1OC(=O)[C@H](C)C(=O)[C@H](C)[C@@H](O[C@@H]2OC(C)CC(N(C)C)C2O)[C@](C)(OC)C[C@@H](C)C(=O)[C@H](C)[C@H]2N(NC/C=C/c3ccnc4ccccc34)C(=O)O[C@]12C (some centres unmarked) [FSM-140135] | – | – | – | – | – | – | – | – | – | – | – | – | – | – | – | – | – | – | – | – | MIC (K. pneumoniae ATCC 10031; Klebsiella pneumoniae, ATCC10031, K. pneumoniae ATCC 10031 (MP-14), read-out: MIC): 8 mg/L (≈ 10.1 µM); MIC [9]: > 64 mg/L; MIC [10]: > 64 mg/L; MIC (P. aeruginosa ATCC 27853; Pseudomonas aeruginosa, ATCC27853, P. aeruginosa ATCC 27853 (MP-3), read-out: MIC): > 64 mg/L; MIC [11]: > 64 mg/L; MIC [12]: 32 mg/L (≈ 40.3 µM); MIC (A. baumannii ATCC 19606; Acinetobacter baumannii, ATCC19606, A. baumannii ATCC 19606 (MP-15), read-out: MIC): > 64 mg/L; MIC [13]: 16 mg/L (≈ 20.1 µM); MIC (E. coli MP-541 clinical): > 64 mg/L; MIC [14]: 2 mg/L (≈ 2.52 µM); MIC (S. aureus MRSA: USA300; Staphylococcus aureus, S. aureus MRSA: USA300 (MP-549, msr(a)), read-out: MIC): 2 mg/L (≈ 2.52 µM); MIC [15]: > 64 mg/L; MIC (E. coli ATCC 25922; Escherichia coli, ATCC25922, E. coli ATCC 25922 (MP-4), read-out: MIC): > 64 mg/L; MIC [16]: > 64 mg/L; MIC (S. aureus ATCC 29213; Staphylococcus aureus, ATCC29213, S. aureus ATCC 29213 (MP-12), read-out: MIC): 2 mg/L (≈ 2.52 µM); MIC (P. aeruginosa MP-7 PAO1): > 64 mg/L; MIC [17]: > 64 mg/L |
